Like-named read-outs stand apart in the source and are kept apart here. One block for each compound: values may come before it.
Columns and labels:
[1] = molecular target: MK-3 (Homo sapiens, UniProt Q16644); assay: MK-3 inhibition IC50 (similar method to MK-2, with appropriate modifications); type: biochemical; settings: read-out: MK-3 Avg. IC50
Experimental: In practice, the selectivity of a cyclic pyrazole MK-2 inhibitor varies depending upon the condition under which the test is performed and on the inhibitors being tested. However, for the purposes of this specification, the selectivity of a cyclic pyrazole MK-2 inhibitor inhibitor can be measured as a ratio of the in vitro or in vivo IC50 value for inhibition of MK-3, divided by the IC50 value for inhibition of MK-2 (IC50 MK-3/IC50 MK-2). […] The MK-2 or MK-3 inhibiting activity of any of the compounds described herein can be determined by any one of several methods that are well known to those having skill in the art of enzyme activity testing. […] A similar method, with appropriate modifications, Can be used to measure MK-3 inhibitory activity. In addition, the efficacy of one of the present MK-2 inhibiting compounds in therapeutic applications can be determined by testing for inhibition of TNFα production in cell culture and in animal model assays.

[2] = molecular target: MAPKAPK2 (MK-2) (Homo sapiens, UniProt P49137); assay: Determination of MK-2 IC50 (HSP-peptide phosphorylation, anion exchange resin capture assay); type: biochemical
Chain of MAPKAPK2 (MK-2) (P49137 whole entry, species assumed): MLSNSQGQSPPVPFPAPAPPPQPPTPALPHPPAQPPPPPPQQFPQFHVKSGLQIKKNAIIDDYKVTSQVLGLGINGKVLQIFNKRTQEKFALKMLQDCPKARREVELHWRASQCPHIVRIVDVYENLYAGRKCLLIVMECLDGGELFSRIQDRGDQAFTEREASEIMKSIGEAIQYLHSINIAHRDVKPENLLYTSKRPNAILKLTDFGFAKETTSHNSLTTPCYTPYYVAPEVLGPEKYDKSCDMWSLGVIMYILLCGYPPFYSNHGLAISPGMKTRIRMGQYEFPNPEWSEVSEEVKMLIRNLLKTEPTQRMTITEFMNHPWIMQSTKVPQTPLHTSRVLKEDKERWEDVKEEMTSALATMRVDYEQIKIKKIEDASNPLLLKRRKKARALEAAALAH
Experimental: Determination of MK-2 IC50:
Recombinant MAPKAPK2 was phosphorylated at a concentration of 42-78 μM by incubation with 0.23 μM of active p38α in 50 mM HEPES, 0.1 mM EDTA, 10 mM magnesium acetate, and 0.25 mM ATP, pH 7.5 for one hour at 30° C.
The phosphorylation of HSP-peptide ([…]) by MAPKAPK2 was measured using an anion exchange resin capture assay method. The reaction was carried out in 50 mM β-glycerolphosphate, 0.04% BSA, 10 mM magnesium acetate, 2% DMSO and 0.8 mM dithiotheritol, pH 7.5 in the presence of the HSP-peptide with 0.2 μCi [γ^33P]ATP and 0.03 mM ATP. The reaction was initiated by the addition of 15 nM MAPKAPK2 and was allowed to incubate at 30° C. for 30 min. The reaction was terminated and [γ^33P]ATP was removed from solution by the addition of 150 μl of AG 1×8 ion exchange resin in 900 mM sodium formate pH 3.0. A 50 μl aliquot of head volume was removed from the quenched reaction mixture and added to a 96-well plate, 150 μl of Microscint-40 (Packard) was added and the amount of phosphorylated-peptide was determined. Allow the Microscint to sit in the plates for 60 minutes prior to counting.
Compounds are evaluated as potential inhibitors of the MK-2 kinase by measuring their effects on MK-2 phosphorylation of the peptide substrate. Compounds may be screened initially at two concentrations prior to determination of IC50 values. Screening results are expressed as percent inhibition at the concentrations of compound tested. For IC50 value determinations, Compounds are tested at six concentrations in ten-fold serial dilutions with each concentration tested in triplicate. Results are expressed as IC50 values in micromolar. The assay is performed at a final concentration of 2% DMSO.

[3] = Table 5, other cyclic pyrazole MK-2 inhibiting compounds
[4] = Table 5, other cyclic pyrazole MK-2 inhibiting compounds, read-out: MK-2 Avg. IC50
[5] = Table 2, pyrazolylpyrazole MK-2 inhibitors
[6] = Table 2, pyrazolylpyrazole MK-2 inhibitors, read-out: MK-2 Avg. IC50
[7] = Table 1, phenoxypyrazole MK-2 inhibitors
[8] = Table 1, phenoxypyrazole MK-2 inhibitors, read-out: MK-2 Avg, IC50

Chain of MK-3 (Q16644 whole entry, species assumed): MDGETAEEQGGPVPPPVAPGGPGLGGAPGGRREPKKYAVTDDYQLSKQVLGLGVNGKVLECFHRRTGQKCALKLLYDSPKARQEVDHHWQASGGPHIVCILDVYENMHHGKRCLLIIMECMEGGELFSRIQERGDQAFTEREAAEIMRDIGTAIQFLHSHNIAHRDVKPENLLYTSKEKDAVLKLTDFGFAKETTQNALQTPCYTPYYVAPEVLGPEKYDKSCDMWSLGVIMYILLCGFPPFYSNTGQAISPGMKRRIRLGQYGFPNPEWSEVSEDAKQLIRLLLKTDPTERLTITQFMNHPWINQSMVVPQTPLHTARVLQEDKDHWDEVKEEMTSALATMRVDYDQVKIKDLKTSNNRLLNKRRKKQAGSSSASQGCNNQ

IC50 [1, 3]: > 20 µM
IC50 [2, 4]: 0.536 µM
SMILES: O=C1NCCn2nc3c(c21)CCc1cnc(/C=C/c2ccc(Cl)cc2)cc1-3 [Example 6]

IC50 [1, 7]: > 200 µM
IC50 [2, 8]: 3 µM
SMILES: O=C1NCCn2nc3c(c21)CCc1cc(O)c(-c2cccc([N+](=O)[O-])c2)cc1-3 [Example 7]

IC50 [1, 3]: > 20 µM
IC50 [2, 4]: 0.623 µM
SMILES: O=C1NCCn2nc3c(c21)CCc1cnc(/C=C/c2ccc(F)c(F)c2)cc1-3 [Example 7]

IC50 [1, 3]: > 20 µM
IC50 [2, 4]: 0.749 µM
SMILES: O=C1NCCn2nc3c(c21)CCc1cnc(/C=C/c2ccc(F)cc2)cc1-3 [Example 8]

IC50 [1]: 5.68 µM
IC50 ([2]; read-out: MK-2 Avg. IC50): 0.0313 µM
SMILES: O=C1NC(CO)Cn2nc3c(c21)CCc1cnc(-c2cnc4ccccc4c2)cc1-3 (stereo not drawn) [Example 9]

IC50 [1, 3]: > 20 µM
IC50 [2, 4]: 2.26 µM
SMILES: O=C1NCCn2nc3c(c21)CCc1cnc(/C=C/c2ccc(C(F)(F)F)cc2)cc1-3 [Example 9]

IC50 [1, 5]: ≥ 200 µM
IC50 [2, 6]: 10.1 µM
SMILES: NCCCCn1nc2c(c1C(=O)O)CCc1[nH]ncc1-2 [Example 10]

IC50 [1, 3]: > 20 µM
IC50 [2, 4]: 2.92 µM
SMILES: O=C1NCCn2nc3c(c21)CCc1cnc(/C=C/c2cccc(Cl)c2)cc1-3 [Example 10]

IC50 [1, 5]: ≥ 200 µM
IC50 [2, 6]: 10.5 µM
SMILES: CSc1n[nH]c2c1-c1nn3c(c1CC2)C(=O)NCCC3 [Example 11]

IC50 [1, 3]: > 200 µM
IC50 [2, 4]: 4.46 µM
SMILES: O=C1NCCn2nc3c(c21)CCc1cnc(/C=C/c2ccccc2F)cc1-3 [Example 11]

IC50 ([2]; read-out: MK-2 Avg. IC50): 191 µM
SMILES: O=C1c2c3c(nn2CC2CCCN1C2)-c1ccncc1CC3 (stereo not drawn) [Example 281]

More lines, now with the values behind:

SMILES: NCCCn1nc2c(c1C(=O)O)CCc1cnc(-c3ccc4c(c3)OCO4)cc1-2 [Example 7]
IC50 [1]: 0.269 µM
IC50 ([2]; read-out: MK-2 Avg. IC50): 0.0296 µM

SMILES: O=C(O)c1c2c(nn1CCCNCCc1cccs1)-c1cn[nH]c1CC2 [Example 7]
IC50 [1, 5]: 55.2 µM
IC50 [2, 6]: 3.66 µM

SMILES: N#Cc1cccc(-c2cc3c(cn2)CCc2c-3nn(CCCN)c2C(=O)O)c1 [Example 8]
IC50 [1]: 0.226 µM
IC50 ([2]; read-out: MK-2 Avg. IC50): 0.0302 µM

SMILES: NCCCn1nc2c(c1C(=O)O)CCc1cc(O)c(Br)cc1-2 [Example 8]
IC50 [1, 7]: > 200 µM
IC50 [2, 8]: 3.75 µM

SMILES: O=C(O)c1c2c(nn1CCCNCCc1ccsc1)-c1cn[nH]c1CC2 [Example 8]
IC50 [1, 5]: 48.5 µM
IC50 [2, 6]: 7.84 µM

SMILES: CCOC(=O)c1c2c(nn1CCCNCCc1ccc(Br)cc1)-c1cn[nH]c1CC2 [Example 9]
IC50 [1, 5]: 68.1 µM
IC50 [2, 6]: 8.54 µM

SMILES: NCCCn1nc2c(c1C(=O)O)CCc1cc(O)c(-c3ccc([N+](=O)[O-])cc3)cc1-2 [Example 9]
IC50 [1, 7]: 104 µM
IC50 [2, 8]: 4.91 µM

SMILES: COc1ccc(-c2cc3c(cn2)CCc2c-3nn(CCCN)c2C(=O)O)cc1 [Example 10]
IC50 [1]: 0.995 µM
IC50 ([2]; read-out: MK-2 Avg. IC50): 0.0371 µM

SMILES: N#Cc1cccc(-c2cc3c(cc2O)CCc2c-3nn(CCCN)c2C(=O)O)c1 [Example 10]
IC50 [1, 7]: 168 µM
IC50 [2, 8]: 5.35 µM

SMILES: CS(=O)(=O)c1cccc(-c2cc3c(cn2)CCc2c-3nn(CCCN)c2C(=O)O)c1 [Example 11]
IC50 [1]: 0.453 µM
IC50 ([2]; read-out: MK-2 Avg. IC50): 0.0391 µM

SMILES: NCCCn1nc2c(c1C(=O)O)CCc1cc(O)c(-c3cccc(C(F)(F)F)c3)cc1-2 [Example 11]
IC50 [1, 7]: 71.7 µM
IC50 [2, 8]: 7.53 µM

SMILES: COc1cc2c(cc1CCC(F)(F)F)-c1nn(CCCNC(=O)OC(C)(C)C)c(C(=O)O)c1CC2 [Example 54]
IC50 [1, 7]: > 200 µM

SMILES: O=C(O)c1c2c(nn1CCCNS(=O)(=O)Cc1ccc(Cl)cc1)-c1cc(-c3cnc4ccccc4c3)ncc1CC2 [Example 54]
IC50 [1]: 6.46 µM

SMILES: NCCCNC(=O)c1[nH]nc2c1CCc1cnccc1-2 [Example 278]
IC50 ([2]; read-out: MK-2 Avg. IC50): 189 µM

SMILES: O=C(NCCCn1nc2c(c1C(=O)O)CCc1cnccc1-2)c1ccco1 [Example 279]
IC50 ([2]; read-out: MK-2 Avg. IC50): 190 µM

SMILES: O=C(O)c1c2c(nn1CC(O)CN1CCNCC1)-c1ccncc1CC2 (stereo not drawn) [Example 283]
IC50 ([2]; read-out: MK-2 Avg. IC50): 198 µM

Source: patent US20040127492A1 (Pharmacia Corporation, priority 2002, published 2004)
